Like-named read-outs stand apart in the source and are kept apart here.
Tests used:
[1] = test system: Desmin positive stellate-like cells in DesLO; assay: Fibrogenesis model: Desmin immunofluorescence and qRT-PCR; format: cell-based, human; settings: for Desmin positive population (immunofluorescence staining): 5 ng/mL TGFB1 for 3 days
From the text: Multicellular DesLO as a Model for Fibrogenesis: Hepatic fibrosis is a maladaptive multicellular response of liver that is characterized by an excessive accumulation of extracellular matrix. It is a wound healing process, largely mediated by hepatic stellate cells (liver pericytes) which proliferate, deposit collagen, and generate scar tissue in response to injury. Since DesLOs contain a population of stellate-like cells we assessed whether this cell population respond to classical fibrotic stimuli. We induced fibrogenesis via transforming growth factor beta-1 (TGFβ1) or a combination of TGFβ1 and fetal bovine serum (FBS) supplementation to the culture medium. […] It is known that tissue culture treated polystyrene (TCTP) can increase cell stress and stellate cell proliferation.
Cells were grown on Matrigel-coated 8 mm or 12 mm diameter circular glass coverslips and fixed for 20 min in 4% paraformaldehyde (Electron Microscopy Sciences) at room temperature. Coverslips were then washed three times in 200 μl PBS droplets on Parafilm (Pechiney Plastic Packaging Company) followed by 15 min permeabilization in 100 μl of 0.2% Triton X-100 in PBS. Subsequently the coverslips were washed three times in 200 μl in washing buffer (0.05% Tween-20 in PBS) for 5 min and blocked for 20 min in 200 μl wash buffer plus 5% normal donkey serum (Jackson ImmunoResearch Laboratories). The incubation with the primary antibodies was performed for 1 h at room temperature in 30 μl of 5% normal donkey serum in PBS followed by three washes in 200 μl in PBS for 5 min each. The incubation with the secondary antibodies was performed for 1 h at room temperature in 30 μl of 5% normal donkey serum in PBS followed by three washes in 200 μl in PBS for 5 min. Finally, the coverslips were mounted on microscopy glass slides using ProLong Diamond Antifade (Life Technologies, USA), cured overnight at room temperature and then sealed with nail polish. Antibody list and concentrations are included in the supplement.

[2] = test system: FXR signaling (CYP7A1, NROB2/SHP, FGF19 expression) in DesLO
Experimental: (§1) To further delineate the mechanism of FXR-mediated CYP7A1 repression, we tested FXR, NROB2, and FGF19 expression following GW4064 treatment.
(§2) Tissues were harvested and lysed by adding 500 μL Trizol (Life Technologies) directly to the tissue culture well and freezing at −80C. For extraction, lysate was thawed on ice, 100 μL chloroform was added, vortexed for 30 seconds, and centrifuged at 12,000 g for 15 minutes at 4° C. After centrifugation the aqueous phase was transferred to a Qiagen gDNA eliminator column and centrifuged at 10,000 g for 1 minute at 4° C. The flow-through was mixed with an equal volume of 70% EtOH and transferred to an RNEasy mini spin column. The manufacturer protocol for the RNEasy Plus Mini Kit (QIAGEN) was followed for the rest of the procedure. cDNA was synthesized using the high Capacity cDNA reverse transcription (Applied Biosystems). qRT-PCR was performed using the SYBR Green intercalating dye (ThermoFisher Scientific) and previously validated primers (IDT). Expression was normalized to 18S ribosomal RNA and relative gene expression was calculated using 2^−ΔΔCT method.

[3] = test system: FXR signaling (CYP7A1, NROB2/SHP, FGF19 expression) in FeLO; assay: qRT-PCR of bile acid synthesis / FXR pathway genes in FeLO after addition of FXR agonist; settings: FeLO cultures
Experimental: as §1, §2

[4] = test system: FXR signaling (CYP7A1, NROB2/SHP, FGF19 expression) in DesLO; assay: qRT-PCR of bile acid synthesis / FXR pathway genes in DesLO after addition of FXR agonist, bile acid or FGF19
Experimental: as §1, §2

[5] = test system: bile acid synthesis in DesLO; assay: Total bile acid assay in media; format: cell-based, human; settings: addition of GW4064
Experimental: The cell supernatant was assessed at multiple dilutions to optimize detection, and the assay was performed according to the manufacturer's protocol.

transforming growth factor beta-1 [TGFβ1]
Desmin positive population (immunofluorescence staining) ([1]; DesLO, versus vehicle control): visibly expanded
Desmin positive population (immunofluorescence staining) ([1]; DesLO, versus vehicle control, listed as TGFB1): increase in expression
Desmin levels (qRT-PCR) ([1]; DesLO, versus vehicle control): increase
response to TGFβ1 treatment (Desmin qRT-PCR) ([1]; both FeLO and DesLO): responded modestly

C[C@H](CCC(=O)O)[C@H]1CC[C@H]2[C@@H]3[C@H](O)C[C@@H]4C[C@H](O)CC[C@]4(C)[C@H]3CC[C@]12C [CDCA, chenodeoxycholic acid]
CYP7A1 expression change (qRT-PCR) [2]: expected downregulation of CYP7A1

CC(C)c1onc(-c2c(Cl)cccc2Cl)c1COc1ccc(/C=C/c2cccc(C(=O)O)c2)c(Cl)c1 [GW4064]
upregulation of SHP and FGF19 / CYP7A1 repression ([3]; GW4064 treatment): could not be captured
CYP7A1 repression (real-time qPCR) ([3]; addition of GW4064): not repressed
upregulation of FGF19 ([4]; GW4064 treatment): > 40 folds
upregulation of SHP (NROB2) ([4]; GW4064 treatment): > 40 folds
CYP7A1 repression (real-time qPCR) ([4]; addition of GW4064): 4 fold
total bile acid in media [5]: repression of bile acid synthesis

fibroblast growth factor 19 [FGF19]
CYP7A1 expression change (qRT-PCR) ([4]; addition to the media): expected downregulation of CYP7A1

From patent US12275957B2, “Next generation designer liver organoids and their methods of preparation and use” (ARIZONA BOARD OF REGENTS ON BEHALF OF ARIZONA STATE …, priority 2018, dated 2025)
